In publication PMC12592139, “Quantitative assessment of the usability of electromechanical human-based modelling and simulation to replace Langendorff isolated rabbit heart experiments in the preclinical setting” (Frontiers in Pharmacology, 2025):
Like-named read-outs stand apart in the source and are kept apart here.

Tests used:
hCav1.2 = hCav1.2 (Homo sapiens, UniProt Q13936); test: Automated patch-clamp (SyncroPatch) on hCav1.2
Method: (§1) The QPatch system (Sophion, Denmark) was used to investigate hERG, hNav1.5 and hKv4.3, and the SyncroPatch system (Nanion, Germany) was employed for hCav1.2. Recordings for all 37 compounds were performed at 21 °C.
(§2) When a Hill coefficient was not available, it was approximated as 1.

hNav1.5 = hNav1.5 (Homo sapiens, UniProt Q14524); test: Automated patch-clamp (QPatch) on hNav1.5 (peak sodium current)
Method: as §1, §2

QTc = details: clinical, administered in isolation; ref El Kadri et al., 2022; Morrisette et al., 2020; cited from earlier work
hNCX1 = target: T1, hNCX1 (Homo sapiens, UniProt P32418); test: Cell-based calcium mobilization assay on CHO cell lines expressing NCX1; details: for IC50: Fluo4-AM
T1 construct: expressed in transfected cells; host or cells: CHO cell lines
Method: Furthermore, in vitro potency for 11 compounds was assessed on the NCX isoforms using a cell-based calcium mobilization assay on CHO cell lines expressing NCX1, NCX2 or NCX3. Measurements of intracellular calcium concentration employed a fluorescent imaging plate reader (Molecular Devices, United States) with the calcium-sensitive dye Fluo4-AM. Detailed methods are described in [Pelat et al. (2021)].

hERG channel = hERG channel (Homo sapiens, UniProt Q12809); test: Automated patch-clamp (QPatch) on hERG channel
Method: as §1, §2

late hNav1.5 = late hNav1.5 (Homo sapiens, UniProt Q14524); test: Late hNav1.5 inhibition in vitro; assay type: cell-based
hKv4.3 = target: T2, hKv4.3 (Homo sapiens, UniProt Q9UK17); test: Automated patch-clamp (QPatch) on hKv4.3; assay type: cell-based
T2 construct: expressed in transfected cells
T2 sequence (Q9UK17 1-655): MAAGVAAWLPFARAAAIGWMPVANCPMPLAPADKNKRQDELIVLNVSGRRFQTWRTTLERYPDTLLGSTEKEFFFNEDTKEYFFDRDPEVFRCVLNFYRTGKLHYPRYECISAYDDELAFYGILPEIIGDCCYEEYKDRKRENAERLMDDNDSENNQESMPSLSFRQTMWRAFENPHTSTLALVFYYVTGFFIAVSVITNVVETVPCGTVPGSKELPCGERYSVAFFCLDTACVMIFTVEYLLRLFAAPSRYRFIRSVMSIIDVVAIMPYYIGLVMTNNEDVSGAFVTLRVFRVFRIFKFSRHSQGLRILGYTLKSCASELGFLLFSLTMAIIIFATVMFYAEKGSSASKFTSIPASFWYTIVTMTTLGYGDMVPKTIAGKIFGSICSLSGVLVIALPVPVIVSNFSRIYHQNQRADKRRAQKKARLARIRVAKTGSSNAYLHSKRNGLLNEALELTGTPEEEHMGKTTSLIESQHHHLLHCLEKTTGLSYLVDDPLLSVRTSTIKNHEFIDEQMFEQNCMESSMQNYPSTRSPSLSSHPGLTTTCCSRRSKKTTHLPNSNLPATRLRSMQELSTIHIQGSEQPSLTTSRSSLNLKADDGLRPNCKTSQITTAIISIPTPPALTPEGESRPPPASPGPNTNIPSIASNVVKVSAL
Excerpt: Following the procedure in [Trovato et al. (2022)], we used automated patch-clamp platforms to study four ionic currents relevant to human repolarisation, as outlined by [Zhou et al. (2020)] as the minimum set of ion channels, marked by the CiPA Ion Channel Work Group, for reliable predictions of repolarisation abnormalities. […] The QPatch system (Sophion, Denmark) was used to investigate hERG, hNav1.5 and hKv4.3, and the SyncroPatch system (Nanion, Germany) was employed for hCav1.2. Recordings for all 37 compounds were performed at 21 °C.
as §2

L-type calcium current = tested on: L-type calcium current; parameters: method as in Trovato et al., 2025; details: at EC50; ref Trovato et al., 2025; cited from earlier work
isolated rabbit heart = test: Ex vivo rabbit whole-heart Langendorff experiments (QT, left ventricular pressure); details: 0.1µM
Method: Routine experimental measurements used in this study were retrieved from already existing datasets collected and curated by Sanofi, contributing to the 3R principles in animal experimentation: replacement, reduction and refinement. All the procedures described in the present study were performed in agreement with the European regulation (2010/63/EU) and under the approval and control of Sanofi’s ethics committee. […]
Hearts were spontaneously beating. […] The left ventricular pressure was evaluated using a pressure transducer within a saline-filled latex balloon inserted into the ventricular chamber. […] The electrocardiogram was recorded with two flexible electrodes gently pressed on the epicardium. The ECG parameters PQ, QRS, and QT durations were calculated using specific software (HEM-Notocord systems).
After stabilization, pressure was recorded with the vehicle for 15 min and used as a control period. […]
Baseline biomarker measurements were established in control conditions for both ex vivo experiments and in silico simulations, benchmarking compound results at each concentration against these respective controls. Percent variations of means for experiments and simulations were calculated. In the population, these variations were measured against each cell’s control, and the group mean is calculated.

[1] = CHO cells, calcium mobilization

hNav1.5, sequence (Q14524 whole entry): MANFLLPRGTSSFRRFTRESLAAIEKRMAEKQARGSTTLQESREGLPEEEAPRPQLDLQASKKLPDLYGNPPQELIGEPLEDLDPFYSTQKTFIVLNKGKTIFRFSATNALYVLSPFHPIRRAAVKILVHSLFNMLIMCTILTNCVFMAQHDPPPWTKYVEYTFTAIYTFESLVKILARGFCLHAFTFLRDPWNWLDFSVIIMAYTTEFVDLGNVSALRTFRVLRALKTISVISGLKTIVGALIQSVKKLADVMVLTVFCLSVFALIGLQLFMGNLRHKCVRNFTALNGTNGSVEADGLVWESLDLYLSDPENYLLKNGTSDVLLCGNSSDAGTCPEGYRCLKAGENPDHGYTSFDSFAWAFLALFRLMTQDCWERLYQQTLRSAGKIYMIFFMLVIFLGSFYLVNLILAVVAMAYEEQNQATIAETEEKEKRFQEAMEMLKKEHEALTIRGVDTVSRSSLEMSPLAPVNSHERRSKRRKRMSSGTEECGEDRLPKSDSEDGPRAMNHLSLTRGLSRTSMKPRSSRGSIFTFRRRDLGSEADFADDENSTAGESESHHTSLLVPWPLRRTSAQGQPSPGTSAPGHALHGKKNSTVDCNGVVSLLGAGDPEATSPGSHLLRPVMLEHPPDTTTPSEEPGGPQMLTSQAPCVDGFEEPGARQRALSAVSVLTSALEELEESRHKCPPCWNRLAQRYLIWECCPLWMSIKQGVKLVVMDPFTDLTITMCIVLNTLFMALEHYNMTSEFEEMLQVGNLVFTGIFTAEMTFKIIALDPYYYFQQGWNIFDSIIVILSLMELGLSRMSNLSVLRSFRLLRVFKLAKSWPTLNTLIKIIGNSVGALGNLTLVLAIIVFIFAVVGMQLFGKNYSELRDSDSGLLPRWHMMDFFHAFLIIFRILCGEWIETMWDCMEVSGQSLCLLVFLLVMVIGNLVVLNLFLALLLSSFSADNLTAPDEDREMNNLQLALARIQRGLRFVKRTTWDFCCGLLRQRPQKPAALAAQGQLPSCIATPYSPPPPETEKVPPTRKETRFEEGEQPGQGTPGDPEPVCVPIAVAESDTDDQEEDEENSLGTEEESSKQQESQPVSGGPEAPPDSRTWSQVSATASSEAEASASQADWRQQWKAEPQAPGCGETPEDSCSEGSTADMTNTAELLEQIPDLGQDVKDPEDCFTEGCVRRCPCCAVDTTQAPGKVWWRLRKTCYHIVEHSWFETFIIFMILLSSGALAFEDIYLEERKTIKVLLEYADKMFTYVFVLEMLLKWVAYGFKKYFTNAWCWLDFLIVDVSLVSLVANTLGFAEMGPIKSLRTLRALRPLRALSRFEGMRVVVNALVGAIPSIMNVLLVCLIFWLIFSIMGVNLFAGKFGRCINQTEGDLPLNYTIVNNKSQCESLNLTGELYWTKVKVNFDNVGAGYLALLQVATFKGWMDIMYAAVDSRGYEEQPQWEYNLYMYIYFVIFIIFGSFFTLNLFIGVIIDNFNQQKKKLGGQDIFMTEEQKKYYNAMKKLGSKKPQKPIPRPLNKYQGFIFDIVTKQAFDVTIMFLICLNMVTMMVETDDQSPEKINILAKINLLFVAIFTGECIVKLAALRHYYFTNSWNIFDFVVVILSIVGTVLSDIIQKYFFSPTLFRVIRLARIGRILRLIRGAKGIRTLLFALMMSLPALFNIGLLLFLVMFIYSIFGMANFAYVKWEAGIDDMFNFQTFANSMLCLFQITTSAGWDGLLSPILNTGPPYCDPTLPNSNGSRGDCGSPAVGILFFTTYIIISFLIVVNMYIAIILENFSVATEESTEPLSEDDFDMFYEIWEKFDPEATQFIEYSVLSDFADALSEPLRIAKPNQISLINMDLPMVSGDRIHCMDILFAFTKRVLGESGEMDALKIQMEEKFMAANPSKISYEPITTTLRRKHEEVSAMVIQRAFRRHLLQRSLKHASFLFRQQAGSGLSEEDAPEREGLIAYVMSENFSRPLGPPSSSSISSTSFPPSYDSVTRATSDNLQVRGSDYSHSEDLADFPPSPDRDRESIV
hERG channel, sequence (Q12809 whole entry): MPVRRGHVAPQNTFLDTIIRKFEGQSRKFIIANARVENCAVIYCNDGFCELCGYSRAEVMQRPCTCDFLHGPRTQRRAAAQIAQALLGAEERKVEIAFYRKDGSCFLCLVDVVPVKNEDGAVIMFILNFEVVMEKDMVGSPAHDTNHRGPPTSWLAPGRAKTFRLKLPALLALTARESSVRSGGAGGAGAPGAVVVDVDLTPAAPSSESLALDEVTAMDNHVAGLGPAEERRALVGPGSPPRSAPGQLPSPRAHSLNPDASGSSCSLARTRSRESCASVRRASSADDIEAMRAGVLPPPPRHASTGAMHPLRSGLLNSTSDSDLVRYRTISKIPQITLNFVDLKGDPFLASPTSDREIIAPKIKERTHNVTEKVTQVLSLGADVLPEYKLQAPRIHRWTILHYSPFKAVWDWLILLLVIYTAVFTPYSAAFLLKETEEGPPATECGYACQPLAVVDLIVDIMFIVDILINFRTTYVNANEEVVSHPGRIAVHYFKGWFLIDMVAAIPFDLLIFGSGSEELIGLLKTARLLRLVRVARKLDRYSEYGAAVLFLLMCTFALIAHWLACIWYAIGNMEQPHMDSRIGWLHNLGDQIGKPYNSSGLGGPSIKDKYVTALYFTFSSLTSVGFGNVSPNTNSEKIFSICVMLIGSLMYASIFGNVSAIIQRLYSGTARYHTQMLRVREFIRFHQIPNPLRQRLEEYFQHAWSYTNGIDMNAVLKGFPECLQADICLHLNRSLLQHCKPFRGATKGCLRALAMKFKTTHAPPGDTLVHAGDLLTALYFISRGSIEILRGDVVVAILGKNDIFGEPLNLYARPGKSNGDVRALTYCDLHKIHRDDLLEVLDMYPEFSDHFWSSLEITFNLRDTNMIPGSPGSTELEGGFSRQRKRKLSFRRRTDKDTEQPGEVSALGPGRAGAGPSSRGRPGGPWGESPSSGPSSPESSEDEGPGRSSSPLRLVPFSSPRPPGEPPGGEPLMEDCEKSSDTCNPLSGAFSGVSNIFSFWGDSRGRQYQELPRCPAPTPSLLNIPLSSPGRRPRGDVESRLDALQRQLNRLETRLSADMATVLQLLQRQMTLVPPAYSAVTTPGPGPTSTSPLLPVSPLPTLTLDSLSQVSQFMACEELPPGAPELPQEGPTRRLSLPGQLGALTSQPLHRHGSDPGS

## CN(C)C(=O)C(CCN1CCC(O)(c2ccc(Cl)cc2)CC1)(c1ccccc1)c1ccccc1 [SA2089, Loperamide]
hCav1.2
  IC50: 3.9 µM
hNav1.5
  IC50: 2.1 µM

## CCN(CCO)CCCC(C)Nc1ccnc2cc(Cl)ccc12 (centres unmarked) [SA1068, Hydroxychloroquine]
QTc
  average increase in QTc: 11 ms
hNCX1
  hNCX1 % block @ 30 µM: 14%
hNCX1; [1]
  IC50: > 30 µM
hERG channel
  IC50: 7 µM
hCav1.2
  IC50: 7.6 µM
hNav1.5
  IC50: 90 µM
Late hNav1.5; 30 µM
  Late Nav1.5 % block @ 30 µM: 15%
Late hNav1.5; read-out: Late Nav1.5 IC50
  IC50: > 30 µM

## [H]/N=C(\N/C(=N/[H])Nc1ccc(Cl)cc1)NC(C)C [SA1790, Paludrine]
hERG channel
  IC50: > 30 µM

## CN=C(N)NC(=O)Nc1c(C)cccc1C [SA9977, Lidamidine]
hNCX1
  hNCX1 % block @ 30 µM: 17.00%
hERG channel; human
  IC50: > 30 µM

## CN1CCN(C2=Nc3cc(Cl)ccc3Nc3ccccc32)CC1 [SA5332, Clozapine]
hKv4.3; automated patch-clamp, 21 °C, IC50 not achieved taken at maximum concentration or estimated with Hill coefficient 1, read-out: Kv4.3 IC50
  IC50: 61.7 µM
hNav1.5
  IC50: 23.2 µM

## C=C(C)[C@@H]1CCC(C)=C[C@H]1c1c(O)cc(CCCCC)cc1O [SA5067, Cannabidiol]
hNCX1; [1]
  hNCX1 nh (Hill coefficient): nH 1.7
  IC50: 18.9 µM
hERG channel
  IC50: 21.8 µM
hKv4.3
  IC50: 7.75 µM
hCav1.2
  IC50: 11.8 µM
hNav1.5
  IC50: 28.1 µM

## CC(CCc1ccc(O)cc1)NCCc1ccc(O)c(O)c1 (centres unmarked) [Dobutamine]
L-type calcium current
  increase of L-type calcium current (factor): 1.22
hNCX1
  NCX inhibition: does not inhibit
  hNCX1 % block @ 30 µM: 15.00%
hERG channel
  IC50: 22.1 µM
Isolated rabbit heart
  increase in ventricular pressure: 17%

## CCN(CC)CC(=O)Nc1c(C)cccc1C [SA5350, Lidocaine]
hNCX1
  hNCX1 % block @ 30 µM: 6.00%

## C[C@@H]1OCC2(CCN(c3cnc(Sc4ccnc(N)c4Cl)c(N)n3)CC2)[C@@H]1N [SA6687, Batoprotafib]
hERG channel
  IC50: 8 µM

## COC(=O)N1CCN(Cc2cccc(NC(=O)Nc3ccc(C)nc3)c2F)CC1 [SA3064, Omecamtiv]
hERG channel; read-out: hERG IC50, automated patch-clamp, 21 °C, IC50 not achieved taken at maximum concentration or estimated with Hill coefficient 1
  IC50: 126 µM
